Experiment: Storage stability at room temperature of rocuronium bromide samples (related substances by HPLC)
Assay type: physicochemical
Conditions: for Impurity A, substances involved (HPLC) / Impurity C, substances involved (HPLC) / Total impurities, substances involved (HPLC) / Single unknown impurity, substances involved (HPLC): room temperature storage

C=CC[N+]1([C@H]2C[C@H]3[C@@H]4CC[C@H]5C[C@H](O)[C@@H](N6CCOCC6)C[C@]5(C)[C@H]4CC[C@]3(C)[C@H]2OC(C)=O)CCCC1 [rocuronium bromide]
hydrolyzed impurities after storage (versus USP33 limits) (moisture 4% or more, storage period of about 10 days at room temperature): out of limits | levels of impurities after storage (moisture controlled to about 0.5%, storage period of one month at room temperature): substantially unchanged | level of impurities after storage (purified by the method of the invention, moisture 4% or less, preferably 0.5% or less, one month at room temperature): substantially unchanged | Impurity A, substances involved (HPLC) (sample moisture 0.5%, Day 0): 0.02% | Impurity C, substances involved (HPLC) (sample moisture 0.5%, Day 0): 0.06% | Total impurities, substances involved (HPLC) (sample moisture 0.5%, Day 0): 0.08% | Impurity A, substances involved (HPLC) (sample moisture 0.5%, Day 10): 0.02% | Impurity C, substances involved (HPLC) (sample moisture 0.5%, Day 10): 0.06% | Total impurities, substances involved (HPLC) (sample moisture 0.5%, Day 10): 0.08% | Impurity A, substances involved (HPLC) (sample moisture 0.5%, Day 20): 0.03% | Impurity C, substances involved (HPLC) (sample moisture 0.5%, Day 20): 0.06% | Total impurities, substances involved (HPLC) (sample moisture 0.5%, Day 20): 0.09% | Impurity A, substances involved (HPLC) (sample moisture 0.5%, Day 30): 0.03% | Impurity C, substances involved (HPLC) (sample moisture 0.5%, Day 30): 0.06% | Total impurities, substances involved (HPLC) (sample moisture 0.5%, Day 30): 0.09% | Impurity A, substances involved (HPLC) (sample moisture 4.5%, Day 0): 0.02% | Impurity C, substances involved (HPLC) (sample moisture 4.5%, Day 0): 0.06% | Total impurities, substances involved (HPLC) (sample moisture 4.5%, Day 0): 0.08% | Impurity A, substances involved (HPLC) (sample moisture 4.5%, Day 10): 0.25% | Impurity C, substances involved (HPLC) (sample moisture 4.5%, Day 10): 0.36% | Single unknown impurity, substances involved (HPLC) (sample moisture 4.5%, Day 10): 0.12% | Total impurities, substances involved (HPLC) (sample moisture 4.5%, Day 10): 0.73% | Impurity A, substances involved (HPLC) (sample moisture 4.5%, Day 20): 0.30% | Impurity C, substances involved (HPLC) (sample moisture 4.5%, Day 20): 0.40% | Single unknown impurity, substances involved (HPLC) (sample moisture 4.5%, Day 20): 0.20% | Total impurities, substances involved (HPLC) (sample moisture 4.5%, Day 20): 0.90% | Impurity A, substances involved (HPLC) (sample moisture 4.5%, Day 30): 0.35% | Impurity C, substances involved (HPLC) (sample moisture 4.5%, Day 30): 0.50% | Single unknown impurity, substances involved (HPLC) (sample moisture 4.5%, Day 30): 0.20% | Total impurities, substances involved (HPLC) (sample moisture 4.5%, Day 30): 1.05%
